Measured values as given in patent US10246461B2, “Dosage form compositions comprising an inhibitor of bruton's tyrosine kinase” (Genentech, Inc., priority 2016, dated 2019).
≈ marks a conversion by molar mass, not a printed value. Where two headings read alike, the source gives them in different places.

Columns and labels:
[1] = Solubility of compound (I) free base in buffers of varying pH, FeSSIF and FaSSIF; assay type: physicochemical
[2] = Human PK, second comparative study: single dose food and PPI assessment of 100 mg powder-in-capsule (Panels J-M); assay type: in vivo; conditions: 100 mg PIC single dose
Excerpt: The protocol is detailed Table 24 below wherein each panel contained 10 human subjects.

[3] = Dissolution of compound (I) mesylate salt vs free base in pH 4.5 aqueous media; assay type: physicochemical; conditions: 100 mg in 2 mL pH 4.5 aqueous media, 37° C.
[4] = Two-stage non-sink dissolution assay (kinetic solubility) of ASD formulations and unformulated API: simulated gastric media then FaSSIF; assay type: physicochemical; conditions: pH 1 gastric media, dosed concentration of about 2000 ug/mL
Protocol: The assay was performed in a modified USP II apparatus (paddles). The experiment measured the total drug dissolved in the presence of excess solid API (non-sink conditions), which included a combination of ‘free’ and colloidal or polymer-bound drug in solution. In some evaluations—to simulate the relatively high pH gastric environment in patients taking proton pump inhibitors—different simulated gastric media were used to begin the two-stage experiment: either pH 1 (HCl buffer) or pH 4 or 5 (acetate buffers) at a nominal compound (I) concentration of 2.0 mg/mL. In some other experiments, acetate buffer was replaced with a dilute HCl solution at similar pH, to better mimic the expected in vivo environment. After 30 minutes, the test material was transferred to fasted-state simulated intestinal fluid (FaSSIF) media consisting of physiologically relevant bile salts (SIF Powder, Biorelevant Inc.) in 100 mM phosphate buffer, and the compound (I) concentration was diluted to 1.0 mg/mL. pH of the phosphate buffer was adjusted as needed to obtain a simulated intestinal pH of 6.8±0.1 in the second stage of the dissolution experiment. The test material was sampled periodically throughout the test and samples were centrifuged at 13,000 r/min. The supernatant was diluted 1:1 with sample diluent and the compound (I) concentration was measured by HPLC. […]

[5] = Panel K: high fat breakfast, no PPI
[6] = Panel L: fasted + rabeprazole 20 mg BID
[7] = Panel M: high fat breakfast + rabeprazole 20 mg BID

## CC1CN(C2COC2)CCN1c1ccc(Nc2cc(-c3ccnc(N4CCn5c(cc6c5CC(C)(C)C6)C4=O)c3CO)cn(C)c2=O)nc1 [Compound (A), (R)-2-(3′-(hydroxymethyl)-1-methyl-5-((5-(2-methyl-4-(oxetan-3-yl)piperazin-1-yl)pyridin-2-yl)amino)-6-oxo-1,6-dihydro-[3,4′-bipyridin]-2′-yl)-7,7-dimethyl-2,3,4,6,7,8-hexahydro-1H-cyclopenta[4,5]pyrrolo[1,2-a]pyrazin-1-one]
[1]; aqueous buffer, pH 2.6, aqueous buffer, read-out: aqueous solubility
  solubility: ~6.5 mg/mL (≈ 9780 µM)
[1]; aqueous buffer, pH 5.0, read-out: solubility
  solubility: ~0.001 mg/mL (≈ 1.5 µM)

## C[C@H]1CN(C2COC2)CCN1c1ccc(Nc2cc(-c3ccnc(N4CCn5c(cc6c5CC(C)(C)C6)C4=O)c3CO)cn(C)c2=O)nc1 [Compound (I) free base, (S)-2-(3′-(hydroxymethyl)-1-methyl-5-((5-(2-methyl-4-(oxetan-3-yl)piperazin-1-yl)pyridin-2-yl)amino)-6-oxo-1,6-dihydro-[3,4′-bipyridin]-2′-yl)-7,7-dimethyl-2,3,4,6,7,8-hexahydro-1H-cyclopenta[4,5]pyrrolo[1,2-a]pyrazin-1-one]
[2]; Panel J: fasted, no PPI
  plasma AUCinf, Mean: 1073 nM·h
  plasma HL-Lambda-z, Mean: 16 h
  plasma HL-Lambda-z, Median: 13 h
[2]; [5]
  plasma AUCinf, Mean: 1701 nM·h
  plasma HL-Lambda-z, Mean: 9.82 h
  plasma HL-Lambda-z, Median: 9.7 h
[2]; [6]
  plasma HL-Lambda-z, Mean: 12.8 h
  plasma HL-Lambda-z, Median: 11 h
[2]; [7]
  plasma HL-Lambda-z, Mean: 13.4 h
  plasma HL-Lambda-z, Median: 12 h
[2]; Panel M: high fat breakfast + rabeprazole 20 mg BID, read-out: plasma Cmax, Mean
  Cmax: 0.041 µM
[2]; plasma, oral, Panel L: fasted + rabeprazole 20 mg BID, read-out: plasma AUC0-24, Mean
  AUC(0-t): 157 nM·h
[2]; plasma, oral, Panel L: fasted + rabeprazole 20 mg BID, read-out: plasma AUC0-24, Median
  AUC(0-t): 160 nM·h
[2]; plasma, oral, Panel L: fasted + rabeprazole 20 mg BID, read-out: plasma AUCinf, Mean
  AUC(0-inf): 274 nM·h
[2]; plasma, oral, Panel L: fasted + rabeprazole 20 mg BID, read-out: plasma AUCinf, Median
  AUC(0-inf): 270 nM·h
[2]; plasma, oral, Panel L: fasted + rabeprazole 20 mg BID, read-out: plasma AUClast, Mean
  AUC(0-t): 261 nM·h
[2]; plasma, oral, Panel L: fasted + rabeprazole 20 mg BID, read-out: plasma AUClast, Median
  AUC(0-t): 270 nM·h
[2]; plasma, oral, Panel L: fasted + rabeprazole 20 mg BID, read-out: plasma Cmax, Mean
  Cmax: 0.0116 µM
[2]; plasma, oral, Panel L: fasted + rabeprazole 20 mg BID, read-out: plasma Cmax, Median
  Cmax: 0.012 µM
[2]; plasma, oral, Panel L: fasted + rabeprazole 20 mg BID, read-out: plasma Tmax, Mean
  Tmax: 5.7 h
[2]; plasma, oral, Panel L: fasted + rabeprazole 20 mg BID, read-out: plasma Tmax, Median
  Tmax: 4 h
[2]; plasma, oral, Panel M: high fat breakfast + rabeprazole 20 mg BID, read-out: plasma AUC0-24, Mean
  AUC(0-t): 471 nM·h
[2]; plasma, oral, Panel M: high fat breakfast + rabeprazole 20 mg BID, read-out: plasma AUC0-24, Median
  AUC(0-t): 520 nM·h
[2]; plasma, oral, Panel M: high fat breakfast + rabeprazole 20 mg BID, read-out: plasma AUCinf, Mean
  AUC(0-inf): 657 nM·h
[2]; plasma, oral, Panel M: high fat breakfast + rabeprazole 20 mg BID, read-out: plasma AUCinf, Median
  AUC(0-inf): 670 nM·h
[2]; plasma, oral, Panel M: high fat breakfast + rabeprazole 20 mg BID, read-out: plasma AUClast, Mean
  AUC(0-t): 642 nM·h
[2]; plasma, oral, Panel M: high fat breakfast + rabeprazole 20 mg BID, read-out: plasma AUClast, Median
  AUC(0-t): 660 nM·h
[2]; plasma, oral, Panel M: high fat breakfast + rabeprazole 20 mg BID, read-out: plasma Cmax, Mean
  Cmax: 0.0406 µM
[2]; plasma, oral, Panel M: high fat breakfast + rabeprazole 20 mg BID, read-out: plasma Cmax, Median
  Cmax: 0.04 µM
[2]; plasma, oral, Panel M: high fat breakfast + rabeprazole 20 mg BID, read-out: plasma Tmax, Mean
  Tmax: 6.9 h
[2]; plasma, oral, Panel M: high fat breakfast + rabeprazole 20 mg BID, read-out: plasma Tmax, Median
  Tmax: 7 h
[2]; plasma, oral, 100 mg, Panel J: fasted, no PPI, read-out: plasma AUC0-24, Mean
  AUC(0-t): 967 nM·h
[2]; plasma, oral, 100 mg, Panel J: fasted, no PPI, read-out: plasma AUC0-24, Median
  AUC(0-t): 980 nM·h
[2]; plasma, oral, 100 mg, Panel J: fasted, no PPI, read-out: plasma AUCinf, Mean
  AUC(0-inf): 1070 nM·h
[2]; plasma, oral, 100 mg, Panel J: fasted, no PPI, read-out: plasma AUCinf, Median
  AUC(0-inf): 1100 nM·h
[2]; plasma, oral, 100 mg, Panel J: fasted, no PPI, read-out: plasma AUClast, Mean
  AUC(0-t): 1060 nM·h
[2]; plasma, oral, 100 mg, Panel J: fasted, no PPI, read-out: plasma AUClast, Median
  AUC(0-t): 1000 nM·h
[2]; plasma, oral, 100 mg, Panel J: fasted, no PPI, read-out: plasma Cmax, Mean
  Cmax: 0.218 µM
[2]; plasma, oral, 100 mg, Panel J: fasted, no PPI, read-out: plasma Cmax, Median
  Cmax: 0.2 µM
[2]; plasma, oral, 100 mg, Panel J: fasted, no PPI, read-out: plasma Tmax, Mean
  Tmax: 1.5 h
[2]; plasma, oral, 100 mg, Panel J: fasted, no PPI, read-out: plasma Tmax, Median
  Tmax: 1.5 h
[2]; plasma, oral, 100 mg, Panel K: high fat breakfast, no PPI, read-out: plasma AUC0-24, Mean
  AUC(0-t): 1560 nM·h
[2]; plasma, oral, 100 mg, Panel K: high fat breakfast, no PPI, read-out: plasma AUC0-24, Median
  AUC(0-t): 1500 nM·h
[2]; plasma, oral, 100 mg, Panel K: high fat breakfast, no PPI, read-out: plasma AUCinf, Mean
  AUC(0-inf): 1700 nM·h
[2]; plasma, oral, 100 mg, Panel K: high fat breakfast, no PPI, read-out: plasma AUCinf, Median
  AUC(0-inf): 1600 nM·h
[2]; plasma, oral, 100 mg, Panel K: high fat breakfast, no PPI, read-out: plasma AUClast, Mean
  AUC(0-t): 1690 nM·h
[2]; plasma, oral, 100 mg, Panel K: high fat breakfast, no PPI, read-out: plasma AUClast, Median
  AUC(0-t): 1600 nM·h
[2]; plasma, oral, 100 mg, Panel K: high fat breakfast, no PPI, read-out: plasma Cmax, Mean
  Cmax: 0.235 µM
[2]; plasma, oral, 100 mg, Panel K: high fat breakfast, no PPI, read-out: plasma Cmax, Median
  Cmax: 0.25 µM
[2]; plasma, oral, 100 mg, Panel K: high fat breakfast, no PPI, read-out: plasma Tmax, Mean
  Tmax: 4 h
[2]; plasma, oral, 100 mg, Panel K: high fat breakfast, no PPI, read-out: plasma Tmax, Median
  Tmax: 4 h
[3]; 15 min
  % dissolved: 0%
[3]; 30 min
  % dissolved: 0.5%
[3]; 45 min
  % dissolved: 2.3%
[3]; 60 min
  % dissolved: 4.1%
[1]; FaSSIF (pH 6.8), read-out: Solubility
  solubility: 0.013 mg/mL (≈ 19.6 µM)
[1]; FeSSIF (pH 5), read-out: Solubility
  solubility: 0.018 mg/mL (≈ 27.1 µM)
[1]; aqueous buffer, pH 2.54, aqueous buffer, read-out: Solubility
  solubility: 35.9 mg/mL (≈ 54000 µM)
[1]; aqueous buffer, pH 2.6, aqueous buffer, pH 2.60, read-out: Solubility
  solubility: 6.48 mg/mL (≈ 9750 µM)
[1]; aqueous buffer, pH 3.8, aqueous buffer, pH 3.80, read-out: Solubility
  solubility: 0.036 mg/mL (≈ 54.2 µM)
[1]; aqueous buffer, pH 5.04, aqueous buffer, read-out: Solubility
  solubility: 0.001 mg/mL (≈ 1.5 µM)
[1]; aqueous buffer, pH 6.94, aqueous buffer, read-out: Solubility
  solubility: 0.001 mg/mL (≈ 1.5 µM)
[1]; aqueous buffer, pH 7.76, aqueous buffer, read-out: Solubility
  solubility: 0.001 mg/mL (≈ 1.5 µM)
[4]
  kinetic dissolution in gastric media: fully dissolved
